Experimental data reported in article PMC10766984, “Josephin domain containing 2 (JOSD2) promotes lung cancer by inhibiting LKB1 (Liver kinase B1) activity” (Signal Transduction and Targeted Therapy, 2024).
Structures can show the parent of a compound that is named as a salt.

Test system: LKB1-WT NSCLC cell lines
Assay: Proliferation assay, panel of LKB1-WT cell lines
Type: cell-based
Settings: indicated concentrations, 72 h
Experimental: The indicated cell lines were treated with indicated compounds at a series of concentrations for 72 h, followed by cell proliferation assay and colony formation assay. Black dashed line indicates 50% of cell survival.
For cell proliferation assay, cells infected with lentiviruses packaged indicated plasmids were seeded indicated number cells per well in 96-well plates. Cell number (absorbance) was then estimated by the sulforhodamine B (SRB) (Sigma-Aldrich, #230162) assay and the absorbance of the individual wells was determined at the optical density of 515 nm. For colony formation assay, cells infected with lentiviruses packaged indicated plasmids were seeded indicated number cells per well in 6-well plates. Two weeks later, cells were stained with SRB and the numbers of colonies having more than 50 cells were counted.

In the case of `O=C1C=CC(=O)c2c1nnn2Cc1cc(F)cc(Cl)c1` [HY032801], the “Cell viability / cell proliferation” value is reported as “failed to inhibit cell proliferation”.

Test system: PDX LUAD 083120 (Case 2)
Assay: Patient-derived xenograft study, intratumor JOSD2 shRNA
Type: in vivo, BALB/c-Nude mice
Settings: not given
Experimental: (§1) PDXs were established in our lab using female BALB/c-Nude mice (4-5 weeks) implanted with tumor tissues from patients undergoing surgeries. […] Once tumors reached approximately 50 mm^3 in volume, mice were randomly assigned to scramble control or JOSD2 shRNA intra-tumor injection treatment. For the intratumor injection, a mice received an intratumorally injection of 5 ×10^6 lentiviruses in 20 μL sterile saline solution every two days.

Work on “shJOSD2#1: gene-specific shRNA targeting JOSD2, GCAACTATGATGTCAATGTGA, delivered by lentiviral vector (lentiviral shRNA)” yielded an Inhibition ratio of 52.24%.

For “shJOSD2#1: gene-specific shRNA targeting JOSD2, GCAACTATGATGTCAATGTGA, delivered by lentiviral vector (lentiviral shRNA)”, the T/C was 64.34%.

Same assay, conditions: at the endpoint

“shJOSD2#1: gene-specific shRNA targeting JOSD2, GCAACTATGATGTCAATGTGA, delivered by lentiviral vector (lentiviral shRNA)” was tested, and the “Tumor Weight” value was 0.08 ± 0.02 g.

Same assay, conditions: intratumor injection

Work on “shJOSD2#1: gene-specific shRNA targeting JOSD2, GCAACTATGATGTCAATGTGA, delivered by lentiviral vector (lentiviral shRNA)” yielded an RTV of 2.73 ± 0.63.

Test system: PDX LUAD 110519 (Case 1)
Assay: as above
Type: in vivo, BALB/c-Nude mice
Settings: not given
Experimental: as §1

Work on “shJOSD2#1: gene-specific shRNA targeting JOSD2, GCAACTATGATGTCAATGTGA, delivered by lentiviral vector (lentiviral shRNA)” yielded an Inhibition ratio of 64.73%.

Compound “shJOSD2#1: gene-specific shRNA targeting JOSD2, GCAACTATGATGTCAATGTGA, delivered by lentiviral vector (lentiviral shRNA)” has a T/C of 37.84%.

Same assay, conditions: at the endpoint

With “shJOSD2#1: gene-specific shRNA targeting JOSD2, GCAACTATGATGTCAATGTGA, delivered by lentiviral vector (lentiviral shRNA)” the “Tumor Weight” value was 0.14 ± 0.07 g.

Same assay, conditions: intratumor injection

“shJOSD2#1: gene-specific shRNA targeting JOSD2, GCAACTATGATGTCAATGTGA, delivered by lentiviral vector (lentiviral shRNA)” gave an RTV of 3.20 ± 1.37.

Molecular target: T1, GST-JOSD2 (Homo sapiens, UniProt Q8TAC2)
T1 sequence (Q8TAC2 1-188): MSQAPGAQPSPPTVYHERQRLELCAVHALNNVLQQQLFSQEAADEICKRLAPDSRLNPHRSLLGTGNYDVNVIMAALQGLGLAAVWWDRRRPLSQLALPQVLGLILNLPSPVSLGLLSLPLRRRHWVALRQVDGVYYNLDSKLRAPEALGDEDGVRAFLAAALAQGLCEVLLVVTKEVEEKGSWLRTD
Assay: not given
Settings: 2 μM compound incubated with GST-JOSD2 at 37 °C for 30 min

First: N#CSc1cc(SC#N)c(N)nc1N [PR-619, reference compound]
Second: O=C1C=CC(=O)c2c1nnn2Cc1cc(F)cc(Cl)c1 [HY032801]
The “JOSD2 activity inhibition ratio” value of the first is higher: 42.70% for the first, −0.98% for the second.

Same assay, conditions: compound concentration 2 μM; JOSD2 inhibitor screening, related to Fig. 7a

Compared with `CC(=O)O/N=C1\C(=O)N(Cc2cc(Cl)ccc2Cl)c2ccc(Cl)cc21` [LDN-57444], `O=C1/C(=C/c2ccc([N+](=O)[O-])cc2)CS(=O)(=O)C/C1=C\c1ccc([N+](=O)[O-])cc1` [Ubiquitin Isopeptidase Inhibitor I] is higher in “JOSD2 Activity Inhibition (%)” value: -16.75% for the first, 1.00% for the second.

Compared with `Cl.N=C(N)NN` [Aminoguanidine hydrochloride], `N#CSc1cc(SC#N)c(N)nc1N` [PR-619, reference compound] is higher in “JOSD2 Activity Inhibition (%)” value: -35.00% for the first, 42.70% for the second.

Compared with `C[C@]12C=CC(=O)C=C1CC[C@@H]1[C@@H]2[C@@H](O)C[C@@]2(C)[C@H]1CC[C@]2(O)C(=O)COP(=O)([O-])[O-].[Na+].[Na+]` [Prednisolone phosphate sodium], `CN1C2=CC(=O)/C(=N\NC(N)=O)C=C2CC1S(=O)(=O)[O-].[Na+]` (stereo not drawn) [AC-17 (Carbazochrome sodium sulfonate)] is lower in “JOSD2 Activity Inhibition (%)” value: 36.74% for the first, 9.85% for the second.

Compared with `CCc1c(-c2ccc3[nH]ncc3c2)cnc(N)c1-c1ccc(O)cc1` [GNE-6640], HBX 19818 is lower in “JOSD2 Activity Inhibition (%)” value: 12.54% for the first, -0.37% for the second.

First: O=C(CCc1ccccc1)N1CCC(O)(Cn2cnc3cc(Cl)ccc3c2=O)CC1 [USP7-IN-1]
Second: CCCC(NC(=O)/C(C#N)=C/c1nc(Cl)ccc1Cl)c1ccc(OCCN2CCOCC2)cc1 (stereo not drawn) [EOAI3402143]
The “JOSD2 Activity Inhibition (%)” value of the first is lower: -29.77% for the first, 29.05% for the second.

Going from `O=C1c2ccccc2C(=O)c2oc(-c3cccnc3)nc21` [SJB3-019A] to `CCO/N=C1\c2ccccc2-c2nc(C#N)c(C#N)nc21` [DUBs-IN-2], the “JOSD2 Activity Inhibition (%)” value falls from 42.78% to 5.01%.

Compared with `O=C(c1ccc(F)cc1)C1CCN(CCn2c(=O)[nH]c3ccccc3c2=O)CC1` [Ketaneserin], `C[C@H]1C[C@@H]2[C@H]([C@@H](O)C[C@@]3(C)[C@H]2CC[C@]3(O)C(=O)COC(=O)CCC(=O)[O-])[C@@]2(C)C=CC(=O)C=C12.[Na+]` [Methylprodnisolone Sodium Succinate] is lower in “JOSD2 Activity Inhibition (%)” value: -29.69% for the first, -78.62% for the second.

Compared with `CC1(C)[C@@H](O[C@H]2O[C@H](C(=O)O)[C@@H](O)[C@H](O)[C@H]2O[C@@H]2O[C@H](C(=O)O)[C@@H](O)[C@H](O)[C@H]2O)CC[C@]2(C)[C@H]3C(=O)C=C4[C@@H]5C[C@@](C)(C(=O)O)CC[C@]5(C)CC[C@@]4(C)[C@]3(C)CC[C@@H]12.N.N` [Diammonium Glycyrrhizinate], `C=CC(N)CCC(=O)O.Cl` (stereo not drawn) [Vigabatrin Hydrochloride] is higher in “JOSD2 Activity Inhibition (%)” value: -22.76% for the first, -16.37% for the second.

First: C=CCO/N=C1\c2ccccc2-c2nc(C#N)c(C#N)nc21 [DUBs-IN-3]
Second: O=C1c2ccccc2C(=O)c2oc(-c3ccccc3)nc21 [SJB2-043]
The “JOSD2 Activity Inhibition (%)” value of the first is higher: 14.15% for the first, 13.43% for the second.

For Tyloxapol, the “JOSD2 Activity Inhibition (%)” value was 29.65%.

Same assay, conditions: read-out: JOSD2 Activity Inhibition (%)

First: CC(=O)OCC(=O)[C@@]12OC3(CCCC3)O[C@@H]1C[C@H]1[C@@H]3CCC4=CC(=O)C=C[C@]4(C)[C@@]3(F)[C@@H](O)C[C@@]12C [Amcinonide]
Second: CCCCC(=O)O[C@]1(C(=O)CO)[C@@H](C)C[C@H]2[C@@H]3CCC4=CC(=O)C=C[C@]4(C)[C@@]3(F)[C@@H](O)C[C@@]21C [Betamethasone 17-valerate]
The inhibition at 2 µM of the first is higher: -19.2% for the first, -26% for the second.

Going from `COC(=O)[C@H](c1ccccc1Cl)N1CCc2sccc2C1` [Clopidogrel sulfate] to `CC(C(=O)O)c1ccc2c(c1)Cc1cccnc1O2` (stereo not drawn) [Pranoprofen], the inhibition at 2 µM rises from -15% to -2.73%.

Going from `C#CCN[C@@H]1CCc2ccccc21` [Rasagiline] to `C#CCN(C)Cc1ccccc1` [Pargyline], the inhibition at 2 µM rises from 29% to 29.8%.

Going from `O=P(O)(O)C(O)(Cc1cccnc1)P(=O)(O)O` [Risedronate Sodium] to `CC(C)(C(=O)c1cccnc1)c1cccnc1` [Metyrapone], the inhibition at 2 µM falls from 4.34% to -6.94%.

Going from `CCCSc1nc(N[C@@H]2C[C@H]2c2ccc(F)c(F)c2)c2nnn([C@@H]3C[C@H](OCCO)[C@@H](O)[C@H]3O)c2n1` [Ticagrelor] to `CCOC(=O)C1=C(COCCN)NC(C)=C(C(=O)OC)C1c1ccccc1Cl` (stereo not drawn) [Amlodipine Besylate], the inhibition at 2 µM falls from 23.1% to -24.3%.

First: CCOC(=O)[N-]c1cn(N2CCOCC2)n[o+]1 [Molsidomine]
Second: CC(=O)OCC(=O)NCCCOc1cccc(CN2CCCCC2)c1 [Roxatidine Acetate hydrochloride]
The inhibition at 2 µM of the first is higher: 35.8% for the first, -20.8% for the second.

First: CCc1ccc(CCOc2ccc(CC3SC(=O)NC3=O)cc2)nc1 (stereo not drawn) [Pioglitazone hydrochloride]
Second: COc1ccc(O)cc1 [Leucobasal]
The inhibition at 2 µM of the first is higher: -5% for the first, -15.3% for the second.

First: CN1C[C@H](C(=O)N[C@]2(C)O[C@@]3(O)[C@@H]4CCCN4C(=O)[C@H](Cc4ccccc4)N3C2=O)C=C2c3cccc4[nH]cc(c34)C[C@H]21 [Ergotamine bitartrate]
Second: CC(CCc1ccccc1)NC(C)C(O)c1ccc(O)cc1 (stereo not drawn) [Nylidrin hydrochloride]
The inhibition at 2 µM of the first is higher: -5.18% for the first, -31.9% for the second.

Going from `CCN(CC)CCNC(=O)c1ccc(N)cc1` [Procainamide hydrochloride] to `COc1cc(CNC(=O)CCCC/C=C/C(C)C)ccc1O` [Capsaicin], the inhibition at 2 µM rises from -20.4% to 1.77%.

Going from `O=C1C=CC(=O)c2c1nnn2Cc1cc(F)cc(Cl)c1` [HY032801] to `COc1ccc(Cc2nccc3cc(OC)c(OC)cc23)cc1OC` [Papaverine hydrochloride], the inhibition at 2 µM falls from -0.98% to -27.9%.

First: CC(C)(Sc1ccc(CCN(CCCCC2CCCCC2)C(=O)NC2CCCCC2)cc1)C(=O)O [GW7647]
Second: CC(=O)[C@H]1CC[C@H]2[C@@H]3C[C@H](C)C4=CC(=O)CC[C@]4(C)[C@H]3[C@@H](O)C[C@]12C [Medrysone]
The inhibition at 2 µM of the first is lower: -29.7% for the first, -8.83% for the second.

First: O=S(=O)(O)c1cc(O)ccc1O [Etamsylate]
Second: C[C@]12CCC(=O)C=C1C=C[C@@H]1[C@@H]2CC[C@@]2(C)[C@H]1CC[C@@]21CCC(=O)O1 [Canrenone]
The inhibition at 2 µM of the first is higher: -21.4% for the first, -22.3% for the second.
